Values of other authors in PubChem BioAssay AID1259409 (Chemical Carcinogenesis Research Information System (CCRIS), 2018).

Test system: rodent chemically induced tumor inhibition, incidence and multiplicity
Assay: CCRIS tumor inhibitor studies
Details: for tumour outcome (control, treated, inhibition, significance): Dose [Inhibitor]: 0, Promoter: NONE USED
From the text: The CCRIS database contains chemical records with carcinogenicity, mutagenicity, tumor promotion, and tumor inhibition test results. It was developed by the National Cancer Institute (NCI). Data are derived from studies cited in primary journals, current awareness tools, NCI reports, and other sources. Test results have been reviewed by experts in carcinogenesis and mutagenesis.
CCRIS provides historical information from the years 1985 - 2011. It is no longer updated.
This is an archive assay for CCRIS tumor inhibitor studies.

O=C1CC[C@@]2(O)[C@H]3Cc4ccc(O)c5c4[C@@]2(CCN3CC2CC2)[C@H]1O5
tumour outcome (control, treated, inhibition, significance) (Carcinogen: 7,12-DIMETHYLBENZ[A]ANTHRACENE, 57-97-6, 75 MG/KG DIET FOR 20 D BEGINNING 10 D PRIOR TO CARCINOGEN DOSE (STUDY DURATION: 130 D), Route [Inhibitor]: ORAL, Species: RAT, Strain/Sex: SPRAGUE-DAWLEY/FEMALE, Target Tissue: Type of Lesion: MAMMARY GLAND: TUMOR, Dose [Carcinogen]: 15 MG IN 0.1 ML OF SESAME OIL ONCE): 100%, 73%, 27%, not significant | tumour outcome (control, treated, inhibition, significance) (Carcinogen: 7,12-DIMETHYLBENZ[A]ANTHRACENE, 57-97-6, 75 MG/KG DIET FOR 109 D BEGINNING 11 D POST CARCINOGEN DOSE (STUDY DURATION: 130 D), Route [Inhibitor]: ORAL, Species: RAT, Strain/Sex: SPRAGUE-DAWLEY/FEMALE, Target Tissue: Type of Lesion: MAMMARY GLAND: TUMOR, Dose [Carcinogen]: 15 MG IN 0.1 ML OF SESAME OIL ONCE): 92%, 36%, 61%, p=0.0024 | tumour outcome (control, treated, inhibition, significance) (Carcinogen: 7,12-DIMETHYLBENZ[A]ANTHRACENE, 57-97-6, 75 MG/KG DIET FOR 130 D BEGINNING 10 D PRIOR TO CARCINOGEN DOSE (STUDY DURATION: 130 D), Route [Inhibitor]: ORAL, Species: RAT, Strain/Sex: SPRAGUE-DAWLEY/FEMALE, Target Tissue: Type of Lesion: MAMMARY GLAND: TUMOR, Dose [Carcinogen]: 15 MG IN 0.1 ML OF SESAME OIL ONCE): 83%, 46%, 45%, p=0.053 | tumour outcome (control, treated, inhibition, significance) (Carcinogen: DIMETHYLBENZ[A]ANTHRACENE, 57-97-6, 1 MG/KG/D ADMINISTERED TO RESTRAINT-STRESSED RATS BEGINNING 2 DAYS POST CARCINOGEN DOSE AND CONTINUING FOR 18 WK (STU, Route [Inhibitor]: INTRAPERITONEAL, Species: RAT, Strain/Sex: F344/FEMALE, Target Tissue: Type of Lesion: MAMMARY GLAND: TUMOR, Dose [Carcinogen]: 15 MG/ML SESAME OIL ONCE): 32%, 12%, 63%, not calculated | tumour outcome (control, treated, inhibition, significance) (Carcinogen: DIMETHYLBENZ[A]ANTHRACENE, 57-97-6, 1 MG/KG/D BEGINNING 2 DAYS POST CARCINOGEN DOSE AND CONTINUING FOR 18 WK (STUDY DURATION: 18 WK), Route [Inhibitor]: INTRAPERITONEAL, Species: RAT, Strain/Sex: F344/FEMALE, Target Tissue: Type of Lesion: MAMMARY GLAND: TUMOR, Dose [Carcinogen]: 15 MG/ML SESAME OIL ONCE): 27%, 15%, 44%, not calculated

CCC1OC(C)=C(O)C1=O (centres undefined)
tumour outcome (control, treated, inhibition, significance) (Carcinogen: BENZO[A]PYRENE, 50-32-8, 25 PPM IN DIET BEGINNING POST CARCINOGEN TREATMENT AND CONTINUING FOR DURATION OF STUDY (STUDY DURATION: 148 D), Route [Inhibitor]: ORAL, Species: MOUSE, Strain/Sex: ICR/FEMALE, Target Tissue: Type of Lesion: FORESTOMACH: TUMOR, Dose [Carcinogen]: 1.5 MG IN 0.2 ML CORN OIL 1/WK FOR 4 WK): 100%, 76%, 24%, not calculated | tumour outcome (control, treated, inhibition, significance) (Carcinogen: BENZO[A]PYRENE, 50-32-8, 50 PPM IN DIET BEGINNING POST CARCINOGEN TREATMENT AND CONTINUING FOR DURATION OF STUDY (STUDY DURATION: 148 D), Route [Inhibitor]: ORAL, Species: MOUSE, Strain/Sex: ICR/FEMALE, Target Tissue: Type of Lesion: FORESTOMACH: TUMOR, Dose [Carcinogen]: 1.5 MG IN 0.2 ML CORN OIL 1/WK FOR 4 WK): 100%, 54%, 46%, not calculated | tumour outcome (control, treated, inhibition, significance) (Carcinogen: BENZO[A]PYRENE, 50-32-8, 75 PPM IN DIET BEGINNING POST CARCINOGEN TREATMENT AND CONTINUING FOR DURATION OF STUDY (STUDY DURATION: 148 D), Route [Inhibitor]: ORAL, Species: MOUSE, Strain/Sex: ICR/FEMALE, Target Tissue: Type of Lesion: FORESTOMACH: TUMOR, Dose [Carcinogen]: 1.5 MG IN 0.2 ML CORN OIL 1/WK FOR 4 WK): 100%, 75%, 25%, not calculated

COc1c2occc2cc2ccc(=O)oc12
outcome (Carcinogen: 4-(N-methyl-N-nitrosamino)-1-(3-pyridyl)-1-butanone, 64091-91-4, Dose [Inhibitor]: 0, 1, 10, 100 ppm in diet for 3 d beginning at 7 wks of age, tumors collected 16 wk after treatment, Route [Inhibitor]: Oral, Species: Mouse, Strain/Sex: A/J/Female, Target Tissue: Type of Lesion: Lung: Adenomas, Dose [Carcinogen]: Single dose of 2 mg 3 days after first inhibitor treatment (Test material solvent: saline), Promoter: None): 12/20 (75%), 17/20 (95%), 14/20 (70%), 10/20 (50%), p<0.001
